Columns and labels:
HCV replicon cells = experiment: HCV replicon assay (FRET or luciferase readout); format: cell-based; details: Table 1
Description: FRET Assay Preparation. To perform the HCV FRET screening assay, 96-well cell culture plates were used. The FRET peptide (Anaspec, Inc.) (Taliani et al., Anal. Biochem. 1996, 240, 60-67) contains a fluorescence donor, EDANS, near one end of the peptide and an acceptor, DABCYL, near the other end. The fluorescence of the peptide is quenched by […] resonance energy transfer (RET) between the donor and the acceptor, but as the NS3 protease cleaves the peptide the products are released from RET quenching and the fluorescence of the donor becomes apparent. The assay reagent was made as follows: 5× cell Luciferase cell culture lysis reagent from Promega (#E153A) diluted to 1× with dH2O, NaCl added to 150 mM final, the FRET peptide diluted to 20 μM final from a 2 mM stock.
To prepare plates, HCV replicon cells, with or without a Renilla luciferase reporter gene, were trypsinized and placed into each well of a 96-well plate with titrated test compounds added in columns 3 through 12; columns 1 and 2 contained a control compound (HCV protease inhibitor), and the bottom row contained cells without compound. The plates were then placed in a CO2 incubator at 37° C.
Assays. Subsequent to addition of the test compounds described above (FRET Assay Preparation), at various times the plate was removed and Alamar blue solution (Trek Diagnostics, #00-100) was added per well as a measure of cellular toxicity. After reading in a Cytoflour 4000 instrument (PE Biosystems), plates were rinsed with PBS and then used for FRET assay by the addition of 30 ul of the FRET peptide assay reagent described above (FRET Assay Preparation) per well. The plate was then placed into the Cytoflour 4000 instrument which had been set to 340 excite/490 emission, automatic mode for 20 cycles and the plate read in a kinetic mode. Typically, the signal to noise using an endpoint analysis after the reads was at least three-fold. Alternatively, after Alamar blue reading, plates were rinsed with PBS, 50 ul of DMEM (high glucose) without phenol red was added and plates were then used for luciferase assay using the Promega Dual-Glo Luciferase Assay System.
Compound analysis was determined by quantification of the relative HCV replicon inhibition and the relative cytotoxicity values. To calculate cytoxicity values, the average Alamar Blue fluorescence signals from the control wells were set as 100% non-toxic. The individual signals in each of the compound test wells were then divided by the average control signal and multiplied by 100% to determine […]. To calculate the HCV replicon inhibition values, an average background value was obtained from the two wells containing the highest amount of HCV protease inhibitor at the end of the assay period. These numbers were similar to those obtained from naïve Huh-7 cells.
The background numbers were then subtracted from the average signal obtained from the control wells and this number was used as 100% activity. The individual signals in each of the compound test wells were then divided by the averaged control values after background subtraction and multiplied by 100% to determine percent activity. EC50 values for a protease inhibitor titration were calculated as the concentration which caused a 50% reduction in FRET or luciferase activity. The two numbers generated for the compound plate, percent cytoxicity and percent activity were used to determine compounds of interest for further analysis.

[1] = biological target: T1, HCV NS5B RdRp genotype 1b (Hepatitis C virus genotype 1b, UniProt Q9WMX2); experiment: HCV NS5B RdRp enzyme assay (standard / modified); format: biochemical; details: Table 1; HCV NS5B genotype 1b
T1 construct: The protein was expressed with an 18 amino acid C-terminal truncation to enhance the solubility; made in house; host or cells: E. coli BL21(DE3), pET21a vector
Description: HCV NS5B RdRp cloning, expression, and purification. The cDNA encoding the NS5B protein of HCV, genotype 1b, was cloned into the pET21a expression vector. The protein was expressed with an 18 amino acid C-terminal truncation to enhance the solubility. The E. coli competent cell line BL21(DE3) was used for expression of the protein. Cultures were grown at 37° C. for ˜4 hours until the cultures reached an optical density of 2.0 at 600 nm. The cultures were cooled to 20° C. and induced with 1 mM IPTG. Fresh ampicillin was added to a final concentration of 50 μg/ml and the cells were grown overnight at 20° C.
Cell pellets (3 L) were lysed for purification to yield 15-24 mgs of purified NS5B. The lysis buffer consisted of 20 mM Tris-HCl, pH 7.4, 500 mM NaCl, 0.5% triton X-100, 1 mM DTT, 1 mM EDTA, 20% glycerol, 0.5 mg/ml lysozyme, 10 mM MgCl2, 15 ug/ml deoxyribonuclease I, and Complete™ protease inhibitor tablets (Roche). After addition of the lysis buffer, frozen cell pellets were resuspended using a tissue homogenizer. To reduce the viscosity of the sample, aliquots of the lysate were sonicated on ice using a microtip attached to a Branson sonicator. The sonicated lysate was centrifuged at 100,000×g for 1 hr at 4° C. and filtered through a 0.2 μm filter unit (Corning).
The protein was purified using three sequential chromatography steps: Heparin sepharose CL-6B, polyU sepharose 4B, and Hitrap SP sepharose (Pharmacia). The chromatography buffers were identical to the lysis buffer but contained no lysozyme, deoxyribonuclease I, MgCl2 or protease inhibitor and the NaCl concentration of the buffer was adjusted according to the requirements for charging the protein onto the column. Each column was eluted with a NaCl gradient which varied in length from 5-50 column volumes depending on the column type. After the final chromatography step, the resulting purity of the enzyme is >90% based on SDS-PAGE analysis. The enzyme was aliquoted and stored at −80° C.
Standard HCV NS5B RdRp enzyme assay. HCV RdRp genotype 1b assays were run in a final volume of 60 μl in 96 well plates (Costar 3912). The assay buffer is composed of 20 mM Hepes, pH 7.5, 2.5 mM KCl, 2.5 mM MgCl2, 1 mM DTT, 1.6 U RNAse inhibitor (Promega N2515), 0.1 mg/ml BSA (Promega R3961), and 2% glycerol. All compounds were serially diluted (3-fold) in DMSO and diluted further in water such that the final concentration of DMSO in the assay was 2%. HCV RdRp genotype 1b enzyme was used at a final concentration of 28 nM. A polyA template was used at 6 nM, and a biotinylated oligo-dT12 primer was used at 180 nM final concentration. Template was obtained commercially (Amersham 27-4110). Biotinylated primer was prepared by Sigma Genosys. 3H-UTP was used at 0.6 μCi (0.29 μM total UTP). Reactions were initiated by the addition of enzyme, incubated at 30° C. for 60 min, and stopped by adding 25 μl of 50 mM EDTA containing SPA beads (4 μg/μl, Amersham RPNQ 0007). Plates were read on a Packard Top Count NXT after >1 hr incubation at room temperature.
Modified HCV NS5B RdRp enzyme assay. A modified enzyme assay was performed essentially as described for the standard enzyme assay except for the following: The biotinylated oligo dT12 primer was precaptured on streptavidin-coated SPA beads by mixing primer and beads in assay buffer and incubating at room temperature for one hour. Unbound primer was removed after centrifugation. The primer-bound beads were resuspended in 20 mM Hepes buffer, pH 7.5 and used in the assay at final concentrations of 20 nM primer and 0.67 μg/μl beads. Order of addition in the assay: enzyme (14 nM) was added to diluted compound followed by the addition of a mixture of template (0.2 nM), 3H-UTP (0.6 μCi, 0.29 μM), and primer-bound beads, to initiate the reaction; concentrations given are final. Reactions were allowed to proceed for 4 hours at 30° C.
IC50 values for compounds were determined using seven different [I]. […]

T1 sequence (Q9WMX2 2420-2992): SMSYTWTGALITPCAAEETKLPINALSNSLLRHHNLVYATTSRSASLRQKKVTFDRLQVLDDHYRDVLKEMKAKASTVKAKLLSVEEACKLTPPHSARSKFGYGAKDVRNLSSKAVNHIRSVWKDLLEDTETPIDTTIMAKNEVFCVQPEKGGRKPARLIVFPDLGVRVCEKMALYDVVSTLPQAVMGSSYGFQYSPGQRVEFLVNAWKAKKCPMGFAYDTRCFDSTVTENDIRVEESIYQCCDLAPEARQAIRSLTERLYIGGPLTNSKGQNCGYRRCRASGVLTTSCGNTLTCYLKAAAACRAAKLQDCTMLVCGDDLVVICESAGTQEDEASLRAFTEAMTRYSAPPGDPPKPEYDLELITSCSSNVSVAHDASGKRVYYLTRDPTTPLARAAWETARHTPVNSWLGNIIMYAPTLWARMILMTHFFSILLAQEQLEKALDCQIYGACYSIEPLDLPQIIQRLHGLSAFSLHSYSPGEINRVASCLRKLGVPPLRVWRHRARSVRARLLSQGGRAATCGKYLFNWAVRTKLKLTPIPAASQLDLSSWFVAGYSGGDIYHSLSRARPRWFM

Compound	EC50 (HCV replicon cells; Hepatitis C virus)	IC50 [1]	EC50 (HCV replicon cells)
CNC(=O)c1c(-c2ccc(F)cc2)nn2ccc(-c3cc(C(=O)NC4(c5ccccn5)CC4)c(OC)nc3C)c(F)c12	2 to 250 nM	–	–
CNC(=O)c1c(-c2ccc(F)cc2)nn2cc(NC(=O)OC(C)(C)C)ccc12	> 10000 nM	> 10000 nM	–
CNC(=O)c1c(-c2ccc(F)cc2)nn2ccc(-c3cc(C(=O)NC4(c5ccccn5)CC4)c(OCC4CCOCC4)nc3C)c(F)c12	2 to 250 nM	–	–
CNC(=O)c1c(-c2ccc(F)cc2)nc2ccc(-c3ccc(-c4ccccc4Cl)c(C(=O)NCC(C)C)c3)cn12 [drawing 121]	2 to 250 nM	–	–
CNC(=O)c1c(-c2ccc(F)cc2)nn2ccc(-c3cc(C(=O)NC4(c5nnc(-c6ccccc6)[nH]5)CC4)c(OC)cc3C)c(F)c12	2 to 250 nM	–	–
CNC(=O)c1c(-c2ccc(F)cc2)nn2ccc(-c3cc(F)cc(C(=O)NC4(c5ccccn5)CC4)c3)c(F)c12	1000 to 10000 nM	–	–
CNC(=O)c1c(-c2ccc(F)cc2)nn2ccc(-c3cc(C(=O)NC4(c5ccccc5)CC4)c(OC(F)F)nc3C)c(F)c12	2 to 250 nM	–	–
CNC(=O)c1c(-c2ccc(F)cc2)nc2ccc(-c3cc(C(=O)NC4(c5ccccn5)CC4)c(OC)cc3Cl)cn12 [drawing 124]	250 to 1000 nM	–	–
CNC(=O)c1c(-c2ccc(F)cc2)nn2ccc(-c3cc(C(=O)NC4(c5ncccn5)CC4)c(OCC4CCOCC4)nc3C)c(F)c12	2 to 250 nM	–	–
CNC(=O)c1c(-c2ccc(F)cc2)nn2ccc(-c3cc(C(=O)NC4(c5nc(C)no5)CC4)cc(F)c3C)c(F)c12	2 to 250 nM	–	–
CNC(=O)c1c(-c2ccc(F)cc2)nn2ccc(-c3cc(C(=O)NC4(c5ccccn5)CC4)cc(F)c3C)c(F)c12	2 to 250 nM	–	–
CNC(=O)c1c(-c2ccc(F)cc2)nn2ccc(-c3cc(C(=O)NC4(c5ccccc5)CC4)cc(F)c3C)c(F)c12 [drawing 138]	2 to 250 nM	–	–
CNC(=O)c1c(-c2ccc(F)cc2)nn2ccc(-c3cc(C(=O)NC4(c5ccccc5)CC4)c(OC)nc3C)c(F)c12	2 to 250 nM	–	–
CNC(=O)c1c(-c2ccc(F)cc2)nc2ccc(C3CC3C(=O)NC3(c4ccccn4)CC3)cn12 (stereo not shown) [drawing 160]	–	–	> 10000 nM
CNC(=O)c1c(-c2ccc(F)cc2)nn2ccc(-c3cc(C(=O)NC4(c5cc(F)ccn5)CC4)c(OC)nc3C)c(F)c12	2 to 250 nM	–	–
CNC(=O)c1c(-c2ccc(F)cc2)nn2ccc(-c3cc(C(=O)NC4(c5ccccn5)CC4)c(OC(F)F)nc3C)c(F)c12	2 to 250 nM	–	–
CNC(=O)c1c(-c2ccc(F)cc2)nc2ccc(-c3ccc(-c4cccnc4)c(C(=O)NCC(C)C)c3)cn12	250 to 1000 nM	–	–
CNC(=O)c1c(-c2ccc(F)cc2)nn2ccc(-c3cc(F)cc(C(=O)NC4(c5ccccc5)CC4)c3)c(F)c12	> 10000 nM	–	–

— patent US8293909B2, “Compounds for the treatment of hepatitis C” (Bristol-Myers Squibb Company, priority 2008, dated 2012)
